Assay in all cases: NCI anticancer screen, dose series, 48 h
Experiment [1] deals with A498 renal.
Experiment [2] deals with HT29 colon.
The test system of experiment [3] is KM12 colon.
In experiment [4] the test system is OVCAR-4 ovarian.
In experiment [5] the test system is OVCAR-8 ovarian.
Experiment [6] has as its system SF-268 CNS.
Experiment [7] relates to T-47D breast.
For experiment [8], the system named is TK-10 renal.
The subject of experiment [9] is U251 CNS.
Experiment [10] deals with UACC-62 melanoma.

Values joined by “and” are separate entries in the source; they are usually repeats but may differ in a detail not shown here. Equal values may be shown once.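 Each compound was tested at five concentrations against cells in 96-well plates for 48 hours. Here, GI50 denotes the concentration required for 50% inhibition of growth. Definition used: TGI = concentration required for complete inhibition of growth.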

On to `COc1ccc(Oc2ccccc2NC(=O)CNC(=O)c2cccc3ccccc23)cc1`, for which the GI50 in [1] was 564 nM; in experiment [2], 576 nM; in experiment [3] it was 577 nM; in [4], 2260 nM; in experiment [5] it was 1150 nM; in [6], 2030 nM. The GI50 was 2520 nM in [7], 2150 nM in experiment [8], 1060 nM in experiment [9] and 559 nM in [10]. Also, the TGI in experiment [1] is 10400 nM; in experiment [2], 19.4 µM; in experiment [3], above 25 µM; in experiment [4], above 25 µM; in experiment [5], above 25 µM; in experiment [6] it was above 25 µM. In addition, the TGI is 19.6 µM in [7], above 25 µM in [8], above 25 µM in experiment [9] and above 25000 nM in experiment [10].

Regarding `O=c1cccc(C#CC#CCCCO)o1`, the GI50 in experiment [1] is 23700 nM; in [2], 4660 nM; in experiment [3], 834 nM; in [4] it was 8590 nM; in experiment [5] it was 4330 nM; in experiment [6] it was 7710 nM. In addition, the GI50 in [7] is 3640 nM; in experiment [8] it was 2970 nM; in experiment [9], 2740 nM; in experiment [10], 4420 nM. The TGI in [1] was 40500 nM; in [2], above 100 µM; in [3], 9.26 µM; in experiment [4], above 57.9 µM; in experiment [5], above 35.8 µM; in experiment [6], 18.5 µM. Also, the TGI in experiment [7] was 27.3 µM; in experiment [8], 9.55 µM; in experiment [9], 7.96 µM; in [10] it was 10500 nM.

In the case of `CCN1C(=O)N(CC)C2C1NN=c1s/c(=C\c3ccc[nH]3)c(=O)n12` (configuration not stated), the GI50 in experiment [1] is 102 nM; in [2], 342 nM; in experiment [3] it was 286 nM; in experiment [4] it was 1680 nM; in experiment [5], 850 nM; in experiment [6], 700 nM. Also, the GI50 in experiment [7] is 400 nM; in [8], above 47800 nM; in experiment [9] it was 446 nM; in [10] it was 435 nM. Also, the TGI was 622 nM in experiment [1]; above 45 µM in experiment [3]; above 100 µM in [4]; above 100 µM in [5]; above 100 µM in [6]; above 100 µM in [7]. The values for the TGI in experiment [8], in experiment [9] and in [10] were above 100 µM, above 100 µM and above 100000 nM, respectively.

In the case of `Nc1ncccc1-c1nc2ccc(-c3ccccc3)nc2n1-c1ccc(C2(N)CCC2)cc1`, the GI50 was 79.1 nM in experiment [1]; 435 nM in [2]; 1780 nM in experiment [3]; 4060 nM in experiment [4]; 2060 nM in [5]; 2050 nM in [6]. Besides, the GI50 was below 11.8 nM in [7], 719 nM in experiment [8], 746 nM in [9] and 1370 nM in experiment [10]. The TGI in [1] amounted to 654 nM; in [2], 3.37 µM; in experiment [3] it was 6.93 µM; in experiment [4], 18.7 µM; in [5], 6.24 µM; in experiment [6], 12.4 µM. Besides, the TGI in [7] stood at 0.158 µM; in experiment [8], 8.01 µM; in [9], 2.31 µM; in experiment [10], 2990 nM.

Regarding `C=CCCCOC1[C@H](OCc2ccccc2)C(OCc2ccccc2)C(OC)O[C@@H]1CNC(=O)c1cccc(I)c1` (some centres not stated), the GI50 in [1] is 7200 nM; in [2] it was 4540 nM; in experiment [3], 6490 nM; in experiment [4] it was 14400 nM; in [5], 26000 nM; in experiment [6], 5380 nM. Moreover, the GI50 is 4740 nM in experiment [7], 5300 nM in experiment [8], 4660 nM in experiment [9] and 3800 nM in [10]. Besides, the TGI in experiment [1] is 72800 nM; in experiment [2], above 100 µM; in [3] it was above 100 µM; in [4], above 100 µM; in experiment [5], above 100 µM; in experiment [6], above 100 µM. Besides, the TGI in [7] was above 100 µM; in experiment [8], above 100 µM; in experiment [9], above 100 µM; in [10] it was above 100000 nM.

In the case of `C[C@@H]1COCCN1c1cc(-c2ccnn2C)c2ccnc(-c3ccn[nH]3)c2n1`, the GI50 in [1] was 21.2 nM and 37.3 nM; in [2], 237 nM and 389 nM; in [3], 176 nM and 171 nM; in experiment [4], 109 nM and 181 nM; in experiment [5], 170 nM and 415 nM; in experiment [6] it was 238 nM and 449 nM. Besides, the GI50 in experiment [7] is 159 nM and 384 nM; in experiment [8], 71.5 nM and 313 nM; in experiment [9], 260 nM and 1000 nM; in experiment [10] it was 125 nM and 163 nM. In addition, the TGI is 83.8 nM and 226 nM in experiment [1]; 36.4 µM and > 100 µM in experiment [2]; above 100 µM in [3]; 1.74 µM in experiment [4]; 0.79 µM and 2.81 µM in experiment [7]; 1.57 µM and 7 µM in experiment [8]. Also, the TGI in experiment [9] was 14.6 µM and > 100 µM; in [10], 876 nM and 1300 nM.

The values are drawn from PubChem BioAssay (NCI).
